This is an account of results in patent US20250042968A1, “EPHRIN LIGAND MIMETIC PEPTIDES FOR THE TREATMENT OF NEURODEGENERATIVE DISEASES” (University of Miami, priority 2022, published 2025).

For data set [1], the system named is isolated mouse RGCs. Briefly: Neurite sprouting and extension assay, short-term (48 h). Format: cell-based. The procedure: Mouse retinal ganglion cells (RGC): Mouse R GCs were isolated as follows. Briefly, retinas from postnatal day 8-10 (p8-10) mouse pups were dissected and digested using a papain solution (16.5 U/mL) for 30 minutes at 37° C. Following dissociation, macrophage and endothelial cells were removed from the cell suspension by panning with the anti-macrophage antiserum (Accurate Chemical, Westbury, NY). Finally, RGCs were immunopanned in plates containing the antibody against Thy1.2 and were then released by incubation with trypsin solution. RGCs were grown on poly-L-lysine coated plates in serum-free Neurobasal media (Invitrogen, Carlsbad, CA), supplemented with B-27 supplement, CNTF (10 ng/ml), and BDNF (10 ng/ml).
(§1) mRGCs were used to analyze dendrite sprouting, axonal polarization and extension, and ephrin receptor phosphorylation following treatment with xEFN peptides. RGCs were isolated as described above and plated onto 24 well plates at a concentration of 4×10^4 cells/well for short-term (48 h) experiments, or into 96-well plates at a concentration of 1,000 cells/well for long-term (6 days) experiments in an Incucyte Zoom (Essen Biosciences) instrument for live cell imaging. […] For the short-tem experiment, cells were fixed in 4% paraformaldehyde for 5 minutes, permeabilized using 0.05% Triton X-100, blocked with 5% fetal bovine serum, and incubated with primary antibody against Tubulin Beta 3 Class III (TUBB3) overnight at 4° C. Cells were then washed 3×5 min with PBS and incubated with AlexaFluor488 secondary antibody for 2 h at room temperature. Cells were mounted using SlowFade Gold Antifade mounting media with DAPI (ThermoFisher) and imaged using an EVOS FL automated fluorescent microscope (ThermoFisher). Dendrite measurements and analysis was performed by a blinded investigator using ImageJ software and the Sholl analysis plugin. […] Neurite sprouting and extension were quantified using the automated Incucyte Zoom NeuroTrack Processing algorithm for real-time, label-free neurite segmentation and quantitation (FIG. 13).

For data set [2], the system named is isolated mouse RGCs. Briefly: Neurite outgrowth, long-term (6 days), Incucyte Zoom live cell imaging. The format is cell-based. As for the experimental part:
Mouse retinal ganglion cells (RGC): Mouse R GCs were isolated as follows. […] Following dissociation, macrophage and endothelial cells were removed from the cell suspension by panning with the anti-macrophage antiserum (Accurate Chemical, Westbury, NY). Finally, RGCs were immunopanned in plates containing the antibody against Thy1.2 and were then released by incubation with trypsin solution. RGCs were grown on poly-L-lysine coated plates in serum-free Neurobasal media (Invitrogen, Carlsbad, CA), supplemented with B-27 supplement, CNTF (10 ng/ml), and BDNF (10 ng/ml).
as §1

The next data set relates to RhoA. In words: Western blot of RhoA in mRGCs. The format is cell-based, mouse. As to conditions: 500 nM. As for the experimental part:
On day 4, cells were treated with pre-clustered recombinant mouse EfnA5-His ligand [(+) Control, using anti-His_Tag antibody for 30 minutes] for 2 hours. Cells were then lysed in RIPA buffer containing protease and phosphatase inhibitor cocktails and maintained on ice. Protein was quantified using a BCA assay, and 10 μg of total protein was run on a TGX stain-free Any kD gel (BioRad) and transferred using the trans-blot turbo system (BioRad). Following transfer and blocking in 5% nonfat milk for 1 h, blots were probed with antibodies against RhoA, phosphorylated Rac1, ARHGEF15, Ephexin-1, or beta-actin as an endogenous loading control overnight at 4° C. Blots were then washed 3×5 min in PBS-T and incubated in the appropriate HRP-conjugated secondary antibody for 2 h at room temperature. Blots were imaged using chemiluminescent ECL substrate (Pierce) on a BioRad ChemiDoc MP imaging system and software.
In general terms: In western blotting, separated proteins are transferred to a membrane and probed.

The subject of data set [3] is human fetal brain-derived neural stem cells (hNSC). Briefly: hNSC growth on ephrin-ligand repulsive substrates. Format: cell-based. As to conditions: 500 nM, 5-day culture, over control cultures. The procedure:
Fetal brain-derived neural stem cells (hNSC): In order to evaluate the effect of xEFN peptides on human neuronal cells, StemPro hNSC were purchased from ThermoFisher Scientific (Cat. no. A15654) and cultured according to the manufacturer's recommended protocol. Briefly, cells were grown in non-adherent neurosphere suspension cultures in StemPro NSC serum-free media (NSC-SFM) (Cat. no. A10509-01) supplemented with 2 mM GlutaMAX-I supplement, 6 U/mL heparin, and 200 μM ascorbic acid (Sigma-Aldrich, Cat. no. A8960). Culture media was changed every 2 days and cells were passaged every 7 days as undifferentiated hNSC. To induce differentiation into neuronal cells, hNSC neurospheres were dissociated into single-cell suspensions using StemPro Accutase for 5 minutes at 37° C. followed by mechanical pipetting. hNSC were then plated onto Geltrex-coated culture vessels at a concentration of 2×10^4 cells/cm^2 in neuronal differentiation media consisting of NSC media without bFGF or EGF and supplemented with B-27 supplement (ThermoFisher Scientific) for 3 days prior to performing further in vitro assays.
Glial-bound efn ligands have been associated with mediating the major repulsive milieu for neuronal process in the CNS. […] Moreover, assays on the repulsive nature of efn ligand-presenting surfaces have been a mainstay in axonal guidance studies for many decade. The use of xEFN peptides to antagonize this repulsive signaling from efn ligand substrates was evaluated on human fetal brain-derived neural stem cells (hNSC).
Recombinant Efn ligands (A2, A4, and B3) containing a His-Tag were purchased from R&D Systems, and were pre-clustered using an anti-His antibody (Genetex) for 30 min. The pre-clustered Efn ligands, or anti-his antibody alone, (control) were then mixed with laminin from human placenta (Sigma-Aldrich) in suspension and used to coat the growth surface of a 24-well plate. […] The entire wells were then scanned using an EVOS FL Auto fluorescent microscope and the images were analyzed in the ImageJ software to calculate cell coverage area.

Data set [4] relates to RGCs and visual function after optic neuropathy onset. In words: Ultrasonic shockwave optic nerve injury model (SI-TON): RGC survival, PERG, flash ERG. Format: in vivo, mouse. As for the experimental part:
In this example, the effect of xEFN peptide administration on the visual function of mice in an animal model that more closely resembled the human manifestation and progression of visual dysfunction following the onset of optic neuropathy was assessed. […] Visual function was measured at 2 and 4 weeks post optic nerve injury in all groups using pattern electroretinogram (PERG) to measure RGC function, as well as flash electroretinogram (ERG) to assess rod and cone functionality.

Setting [5] is: supplemented RGC cultures, 48 h.

Consider FTIKFQEFSPNLWGL [xEFN_RBD3], for which the average axonal length in the data set with isolated mouse RGCs [1] (500 nM, 48 h of culture, compared to vehicle (PBS) treated controls) was 302.16+/−40.24%. Moreover, in the data set on isolated mouse RGCs [1] (isolated RGCs), the axonal extension result is “significantly increases”, the dendritic arbor complexity entry is given as “significantly increases” and the neurite sprouting entry is “significantly increases”. In addition, in the data set with isolated mouse RGCs [1] (setting [5]), the “average neurites/RGC soma” value was 3.43+/−0.16 neurites/RGC and the “median total neurite length” value is 1034.68 (range: 486.26-2759.84) μm/cell. Also, the “neurite outgrowth compared to 1 μM xEFN_F1 peptide” value in the data set with isolated mouse RGCs [2] (1 μM, 6-day period) is “significantly increased”. In the data set on isolated mouse RGCs [2] (1 μM, after 32 hours of culture), the “neurite length over control cultures” value was “statistically-significant increase”. In addition, the “increase in overall neurite length over day 0 measurement” value with isolated mouse RGCs [2] (1 μM, end of 6-day period) was 424.68+/−4.47%. Besides, the “neurite outgrowth compared to EphB2- or EphB4-restricted targeting peptides SNEW and TYFD” value in the data set on isolated mouse RGCs [2] (equal concentrations) is “statistically significant increase”. For the same sequence, the “expression of the GTPase RhoA” value with RhoA is given as “downregulates”. Also, in data set [3], the “confluence coverage on efnA2 substrate” value is 120.62+/−10.89%, the “confluence coverage on efnA4 substrate” value is given as 125.83+/−2.92% and the “confluence coverage on efnB3 substrate” value was 96.51+/−7.15%. In data set [4] (2 weeks post optic nerve injury), the “PERG amplitude over baseline recordings” value is on record as “decline”. For the same sequence, in data set [4] (4 week assessment), the “visual response versus vehicle (PBS) treated animals” value is given as “significantly better”. Also, in data set [4] (4 weeks post injury), the “RGC survival compared to vehicle treated controls” value was “significant survival effect”. Moreover, the “visual function (PERG) at the 4 week assessment” value in data set [4] (4 weeks post optic nerve injury) is recorded as “improved”.
